Where two headings read alike, the source gives them in different places.
Assays:
[1] = molecular target: T1, hCK2α (Homo sapiens, UniProt P68400); experiment: nanoDSF thermal shift assay (low-volume differential scanning fluorimetry); format: binding
T1 construct: made in house
Method: Binding affinities of the newly synthesized compounds towards hCK2α were assessed with the low-volume differential scanning fluorimetry (nanoDSF). The shift of the temperature of thermal denaturation in the presence of 10-fold excess of a particular ligand relative to the apo form of hCK2α (ΔTm) can be used as a semi-qualitative measure of the binding affinity or inhibitory activity.
hCK2α was expressed and purified according to the method described previously. Thermal stability of 1:10 protein–ligand complexes was monitored on Prometheus (Nanotemper Technologies, München, Germany) using PR-C002 Prometheus NT.48 Standard Capillaries using temperature ramp of 20 to 80 °C with 1 °C/min heating rate. Temperature-induced variation in ratio fluorescence intensity at 330 and 350 nm was globally analyzed using the procedure described before. All experiments were performed in 25 mM Tris–HCl (pH 8, 0.5 M NaCl) with 2% (v/v) DMSO. Protein was kept in constant 2.5 μM concentration.

[2] = RP-HPLC chromatographic hydrophobicity index; format: physicochemical; details: C18, 2:1 methanol:20 mM aqueous ammonium formate pH 8; τ = (Tret − T0)/T0
Method: RP-HPLC method, a fast and efficient alternative for standard logD determination in octan-1-ol/water system, was used to assess the hydrophobicity of all synthesized compounds. This method has been successfully used in our laboratory for halogenated benzotriazole derivatives, including the evaluation of the effect of hydrophobicity on their binding to the catalytic subunit of protein kinase CK2 [24, 43].
Chromatographic hydrophobicity index (log(τ)) was determined with the reverse phase HPLC (RP-HPLC). Column: Nova-pak® C18 4 μm, 4.6 × 250 mm. Eluent: 2:1 methanol: 20 mM aqueous ammonium formate (pH = 8) (v/v). Flow: 0.7 mL/min. Detector wavelength: 280 nm. The individual retention times (Tret) were converted to a hydrophobicity scale according to the formula τ = (Tret − T0)/T0. where the retention time of unretained solvent (T0) was estimated to 300 s.

[3] = 10-fold excess of ligand (1:10 protein–ligand), 2.5 μM protein, relative to apo hCK2α, 2% DMSO, pH 8, read-out: ΔTm
[4] = 10-fold excess of ligand (1:10 protein–ligand), 2.5 μM protein, relative to apo hCK2α, 2% DMSO, pH 8

T1 sequence (P68400 whole entry): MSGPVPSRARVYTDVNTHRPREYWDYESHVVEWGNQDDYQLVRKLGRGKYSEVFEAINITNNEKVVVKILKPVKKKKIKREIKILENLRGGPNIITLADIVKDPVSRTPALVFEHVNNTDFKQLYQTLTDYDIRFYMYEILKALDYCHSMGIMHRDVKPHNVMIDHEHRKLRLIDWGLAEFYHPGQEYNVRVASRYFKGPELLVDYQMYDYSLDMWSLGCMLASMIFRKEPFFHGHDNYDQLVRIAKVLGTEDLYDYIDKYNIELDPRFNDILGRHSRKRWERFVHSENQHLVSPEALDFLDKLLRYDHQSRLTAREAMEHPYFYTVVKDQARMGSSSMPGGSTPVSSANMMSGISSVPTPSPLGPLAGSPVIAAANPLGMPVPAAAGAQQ

Compound	ΔTm at 25 µM [1, 3] [°C]	log(τ) HPLC-derived hydrophobicity index [2]	ΔTm [1, 4] [°C]	ΔTm at 25 µM ([1]; pH 8, read-out: ΔTm) [°C]
Brc1cc2nsnc2cc1Br [Compound 2d, 5,6-dibromo-2,1,3-benzothiadiazole]	0.2 ± 0.1	0.461	–	–
Clc1cc2nsnc2cc1Cl [Compound 2c, 5,6-dichloro-2,1,3-benzothiadiazole]	0.2 ± 0.1	0.179	–	–
quinoxaline-1,3-diol [Compound 7a]	–	−0.699	0.1 ± 0.1	–
Ic1cc2nsnc2cc1I [Compound 2e, 5,6-diiodo-2,1,3-benzothiadiazole]	0.2 ± 0.1	0.468	–	–
FC(F)(F)c1nc2ccccc2[nH]1 [Compound 3a, 2-trifluoromethylo-1H-benzimidazole]	–	−0.270	–	0.4 ± 0.1
Nc1cc(I)c(I)cc1N [Compound 1e, 4,5-diiodobenzene-1,2-diamine]	1.7 ± 0.1	−0.093	–	–
c1ccc2nsnc2c1 [Compound 2a, 2,1,3-benzothiadiazole]	0	0.009	–	–
Fc1cc2nsnc2cc1F [Compound 2b, 5,6-difluoro-2,1,3-benzothiadiazole]	-0.3 ± 0.1	0.169	–	–
Nc1ccccc1N [Compound 1a, benzo-1,2-diamine]	–	−0.651	–	-0.1 ± 0.1
Nc1cc(F)c(F)cc1N [Compound 1b]	-0.1 ± 0.1	−0.591	–	–
Nc1cc(Br)c(Br)cc1N [Compound 1d]	0.2 ± 0.1	−0.208	–	–
6,7-dichloroquinoxaline-1,3-diol [Compound 7c]	–	−0.227	1.2 ± 0.1	–
Nc1cc(Cl)c(Cl)cc1N [Compound 1c]	0.1 ± 0.1	−0.298	–	–

Continued, in another order:

ΔTm at 25 µM [1, 3] [°C]	log(τ) HPLC-derived hydrophobicity index [2]	Compound	ΔTm [1, 4] [°C]	ΔTm at 25 µM ([1]; pH 8, read-out: ΔTm) [°C]
-0.1 ± 0.1	−0.295	c1ccc2nccnc2c1 [Compound 6a, quinoxaline]	–	–
0.4 ± 0.1	0.588	Brc1cc2nccnc2cc1Br [Compound 6d, 6,7-dibromoquinoxaline]	–	–
0.8 ± 0.1	−0.084	O=c1[nH]c2cc(Cl)c(Cl)cc2[nH]1 [Compound 5c, 5,6-dichloro-1H-benzo[d]imidazol-2(3H)-one]	–	–
0.4 ± 0.1	−0.579	OCc1nc2ccccc2[nH]1 [Compound 4a, 2-hydroxymethylo-1H-benzimidazole]	–	–
1.2 ± 0.1	0.234	FC(F)(F)c1nc2cc(Cl)c(Cl)cc2[nH]1 [Compound 3c, 5,6-dichlorlo-2-trifluoromethylo-1H-benzimidazole]	–	–
0.8 ± 0.1	−0.095	Fc1cc2nc(C(F)(F)F)[nH]c2cc1F [Compound 3b, 5,6-difluoro-2-trifluoromethylo-1H-benzimidazole]	–	–
0.7 ± 0.1	−0.079	OCc1nc2cc(Cl)c(Cl)cc2[nH]1 [Compound 4c, 5,6-dichloro-2-hydroxymethylo-1H-benzimidazole]	–	–
–	−0.548	6,7-difluoroquinoxaline-1,3-diol [Compound 7b]	0.2 ± 0.1	–
0.1 ± 0.1	0.495	Clc1cc2nccnc2cc1Cl [Compound 6c, 6,7-dichloroquinoxaline]	–	–
0.4 ± 0.1	0.618	Ic1cc2nccnc2cc1I [Compound 6e, 6,7-diiodoquinoxaline]	–	–
0.8 ± 0.1	−0.591	O=c1[nH]c2ccccc2[nH]1 [Compound 5a, 1H-benzo[d]imidazol-2(3H)-one]	–	–
